The nature of series [1]: Dynamic vapor sorption (DVS). It is filed as physicochemical. The procedure:
(§1) Two lots of methylone HCl samples were submitted to evaluate the stability of the solid forms under various humidity conditions. Dynamic vapor sorption (DVS) analysis was performed to evaluate the kinetic hygroscopicity and assess if variable humidity XRPD would be necessary, as well as to determine the appropriate humidity condition(s) for such XRPD analysis. Both pre- and post-DVS samples were analyzed by conventional XRPD for solid form confirmation or any potential form changes.
DVS analyses were carried out using a TA Instruments Q5000 Dynamic Vapor Sorption analyzer. The instrument was calibrated with standard weights and a sodium bromide standard for humidity. Approximately 12-13 mg of each powder sample was loaded into a metal-coated quartz pan for analysis. The samples were analyzed from 5 to 95% RH (adsorption cycle) and from 95 to 5% RH (desorption cycle) in 10% RH steps. The movement from one step to the next occurred either after satisfying the equilibrium criterion of 0.01% weight change in 5 minutes or, if the equilibrium criterion was not met, after 90 minutes. The percent weight change values were calculated using Microsoft EXCEL® 2016.

A short description of series [2]: XRPD of pre- and post-DVS samples (form stability). In kind it is physicochemical. The following applies: pre- versus post-DVS. As to the method:
as §1
The XRPD patterns between the pre- and post-DVS samples were compared for lots 213220 and KRR-R&D-2022-II-58, respectively.
Each sample was prepared in a silicon low background holder using light manual pressure to keep the sample surface flat and level with the reference surface of the sample holder. The single crystal Si low background holder has a circular recess (10 mm diameter and about 0.2 mm depth) that holds the sample. The Rigaku Smart-Lab diffraction system used was configured for Bragg-Brentano reflection geometry using a line source X-ray beam. The Bragg-Brentano geometry was controlled by passive divergence and receiving slits with the sample itself acting as the focusing component for the optics.

Another series addresses hNav1.5 (Homo sapiens (Human), UniProt Q14524). Description: hNav1.5 Sodium Channel Assay (peak), Qube APC. In kind it is cell-based. The note with it: Nav1.5, Antagonist mode, test compound. As to the method:
(§2) Where presented, IC50 values were determined by a non-linear, least squares regression analysis.
(§3) Recombinant HEK-293 cells stably transfected with human Nav1.5 cDNA, recombinant HEK293 cell line expressing the human Cav1.2 (L-type voltage gated calcium channel, hCav1.2 α1C/β2a/α2δ1, and recombinant CHO-K1 cells stably transfected with human hERG cDNA were used separately in each of these assays.
hNav1.5 Sodium Channel Assay—Qube APC Onset and steady state block of peak Nav1.5 current is measured using a pulse pattern, repeated every 5 sec, consisting of a hyperpolarizing pulse to −120 mV for a 200 ms duration, depolarization to −15 mV amplitude for a 40 ms duration, followed by step to 40 mV for 200 ms and finally a 100 ms ramp (1.2 V/s) to a holding potential of −80 mV. Peak current is measured during the step to −15 mV.

The target in another series is hKCNQ1/hminK (Homo sapiens (Human), UniProt P51787). Description: hKCNQ1/hminK Potassium Channel Assay, Qube APC. In kind it is cell-based. The note with it: KCNQ1/mink. The procedure: (§4) Electrophysiological assays were conducted to profile three compounds ((R)-methylone, (S)-methylone, or racemic methylone) for activities on the ion channel targets specified below using the Qube electrophysiological platform. Where presented, IC50 values were determined by a non-linear, least squares regression analysis. Reference standards were run as an integral part of each assay to ensure the validity of the results obtained.
(§5) Ion Channels tested were Eurofins Panel Part Number: CPROFullQB2DR Voltage-Gated Sodium: HEK-Nav1.5 (Peak), HEK-Nav1.5 (Late, Antagonist) Voltage-Gated Potassium: HEK-Kv4.3/KChIP2, CHO-hERG, CHO-KCNQ1/minK Voltage-Gated Calcium: HEK-Cav1.2 Inward-Rectifying Voltage-Gated Potassium: HEK-Kir2.1.
hKCNQ1/hminK Potassium Channel Assay—Qube APC After whole cell configuration is achieved, the cells are held at −80 mV. KCNQ1/minK currents are evoked by a 1000 ms pulse from −80 mV to 60 mV followed by a ramp from 60 mV to −80 mV over 115 ms with the outward peak currents measured upon depolarization of the cell membrane. This paradigm is delivered once every 15 s to monitor the current amplitude.

A further series deals with hKv4.3/hKChIP2 (Homo sapiens (Human), UniProt Q9UK17). Description: hKv4.3/hKChIP2 Potassium Channel Assay, Qube APC. In kind it is cell-based. As to the method: as §4, §5
hKv4.3/hKChIP2, sequence (Q9UK17 whole entry, looked up): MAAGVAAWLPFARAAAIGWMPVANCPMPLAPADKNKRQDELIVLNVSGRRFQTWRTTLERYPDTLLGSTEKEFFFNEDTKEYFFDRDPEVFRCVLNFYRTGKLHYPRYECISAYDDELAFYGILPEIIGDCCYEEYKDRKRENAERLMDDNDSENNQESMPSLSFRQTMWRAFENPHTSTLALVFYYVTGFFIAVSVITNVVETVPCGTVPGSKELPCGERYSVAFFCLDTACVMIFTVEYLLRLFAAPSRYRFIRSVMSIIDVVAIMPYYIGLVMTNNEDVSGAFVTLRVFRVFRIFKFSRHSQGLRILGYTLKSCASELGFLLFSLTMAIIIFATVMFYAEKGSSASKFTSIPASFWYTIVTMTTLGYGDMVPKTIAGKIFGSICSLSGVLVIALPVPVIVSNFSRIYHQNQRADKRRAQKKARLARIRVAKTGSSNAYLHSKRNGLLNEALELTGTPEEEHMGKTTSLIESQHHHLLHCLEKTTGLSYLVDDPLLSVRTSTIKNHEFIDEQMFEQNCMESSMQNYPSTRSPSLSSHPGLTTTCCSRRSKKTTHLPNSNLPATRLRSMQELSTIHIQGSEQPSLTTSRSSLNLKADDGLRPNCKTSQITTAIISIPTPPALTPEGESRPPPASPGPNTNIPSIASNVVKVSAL
hKv4.3/hKChIP2, sequence (Q9NS61 whole entry partner, looked up): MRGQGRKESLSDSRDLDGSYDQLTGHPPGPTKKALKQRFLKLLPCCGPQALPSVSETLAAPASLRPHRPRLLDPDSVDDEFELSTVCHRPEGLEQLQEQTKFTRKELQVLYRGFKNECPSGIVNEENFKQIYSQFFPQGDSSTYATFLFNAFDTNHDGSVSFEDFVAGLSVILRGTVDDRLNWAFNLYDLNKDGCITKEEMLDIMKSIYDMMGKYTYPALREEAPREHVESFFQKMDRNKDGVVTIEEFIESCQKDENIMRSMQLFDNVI
hKv4.3/hKChIP2 Potassium Channel Assay—Qube APC After whole cell configuration is achieved, the cells are held at −80 mV. Onset and steady state block of hKv4.3 current is measured using a pulse pattern from −80 mV to 40 mV amplitude for a 110 ms duration, and finally a 100 ms ramp (1.2 V/s) to −80 mV. This paradigm is delivered once every 5 s to monitor the current amplitude.

The next series deals with hKir2.1 (Homo sapiens (Human), UniProt P63252). In kind it is cell-based. As to the method:
as §4, §5
hKir2.1 Potassium Channel Assay—Qube APC After whole cell configuration is achieved, the cells are held at −30 mV. Kir2.1 currents are evoked by a single 500 ms pulse to −120 mV before returning to the holding potential of −30 mV. This paradigm is delivered once every 20 s to monitor the current amplitude.

The target in a further series is hNav1.5 Late Current (Homo sapiens (Human), UniProt Q14524). The experiment in a line: hNav1.5 Late Current Sodium Channel Assay, Qube APC. It is filed as cell-based. The following applies: Nav1.5 Late Current, Antagonist mode, test compound. The procedure:
as §4, §5
hNav1.5 Late Current Sodium Channel Assay—Qube APC Onset and steady state block of Late Nav1.5 current is measured using a pulse pattern, repeated every 5 sec, consisting of a hyperpolarizing pulse to −120 mV for a 200 ms duration, depolarization to −15 mV amplitude for a 40 ms duration, followed by step to 40 mV for 200 ms and finally a 100 ms ramp (1.2 V/s) to a holding potential of −80 mV. Late current is measured as charge current elicited during the ramp with 50 nM ATXII.

The next series concerns the target hCav1.2 (Homo sapiens (Human), UniProt Q13936). Description: hCav1.2 (L-type) Calcium Channel Assay, Qube APC. In kind it is cell-based. The note with it: Cav1.2, Antagonist mode, test compound. The procedure: as §2, §3
hCav1.2 (L-type) Calcium Channel Assay—Qube APC After whole cell configuration is achieved, the cells are held at −90 mV. Cav1.2 currents are evoked by a 50 ms pulse to −100 mV followed by a 200 ms pulse to +20 mV before returning to the holding potential of −90 mV. This paradigm is delivered three times every 60 s to monitor the current amplitude.

Structures can show the parent of a compound that is named as a salt.

hKir2.1, sequence (P63252 whole entry): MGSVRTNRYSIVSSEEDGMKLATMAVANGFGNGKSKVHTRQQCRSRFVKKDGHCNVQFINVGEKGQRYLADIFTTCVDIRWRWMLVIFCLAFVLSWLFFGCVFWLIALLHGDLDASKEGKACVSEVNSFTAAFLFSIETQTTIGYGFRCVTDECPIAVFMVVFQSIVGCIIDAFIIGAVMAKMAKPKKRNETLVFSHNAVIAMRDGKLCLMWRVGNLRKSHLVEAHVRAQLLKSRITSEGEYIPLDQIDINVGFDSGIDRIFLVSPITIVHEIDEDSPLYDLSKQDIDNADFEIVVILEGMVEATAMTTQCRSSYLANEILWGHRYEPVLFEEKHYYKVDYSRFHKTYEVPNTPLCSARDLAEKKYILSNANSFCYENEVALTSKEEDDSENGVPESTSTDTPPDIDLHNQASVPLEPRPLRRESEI

`CNC(C)C(=O)c1ccc2c(c1)OCO2` (centres unmarked) [Lot 213220, methylone HCl]: in series [1], the Hysteresis upon desorption entry is given as “little to no hysteresis”. For the same molecule, the “Form changes of post-DVS samples (XRPD)” value in series [2] was “No form changes”.

Turning to `CNC(C)C(=O)c1ccc2c(c1)OCO2` (centres unmarked) [Methylone HCl, methylone HCl], the “Estimated IC50” value is recorded as “N/C (N/C indicates observed mean inhibition was <25%)” at hNav1.5; “N/C (N/C indicates observed mean inhibition was <25%)” on hKCNQ1/hminK (Antagonist mode, test compound); “N/C (N/C indicates observed mean inhibition was <25%)” on hKv4.3/hKChIP2 (Kc4.3/ChIP2, Antagonist mode, test compound); “N/C (N/C indicates observed mean inhibition was <25%)” on hKir2.1 (Kir2.1, Antagonist mode, test compound); “N/C (N/C indicates observed mean inhibition was <25%)” at hNav1.5 Late Current; “N/C (N/C indicates observed mean inhibition was <25%)” on hCav1.2.

As to `CCS(=O)(=O)N(C)[C@H]1c2cc(C#N)ccc2OC(C)(C)[C@@H]1O` (racemic) [Chromanol 293B], at hKCNQ1/hminK (reference compound, read-out: Estimated IC50), the IC50 – broadly, the concentration that inhibits the measured activity by half – was 45.3 µM.

With `[Ba+2].[Cl-].[Cl-]` [Barium Chloride], at hKir2.1 (Kir2.1, reference compound, read-out: Estimated IC50), the IC50 was 14.4 µM.

With `O=C(NCC1CCCCN1)c1cc(OCC(F)(F)F)ccc1OCC(F)(F)F` (centres unmarked) [Flecainide], the IC50 on hKv4.3/hKChIP2 (Kc4.3/ChIP2, reference compound, read-out: Estimated IC50) was 19.5 µM.

Regarding `CNC(C)C(=O)c1ccc2c(c1)OCO2.Cl` [lot KRR-R&D-2022-II-58, methylone HCl], in series [1], the “Adsorbed water retained upon desorption” value is recorded as “approximately 0.06%” and the Hysteresis upon desorption result is recorded as “slight hysteresis”. Also, in series [2], the “Form changes of post-DVS samples (XRPD)” value was “No form changes”.

Source of the values: patent publication US20240327372A1, “PREPARATION OF PHENE[…] […] STEREOISOMERS THEREOF AND PRECURSORS THEREOF” (priority 2022, published 2024).
